We go through one molecule from ChEMBL document CHEMBL5150044, “Macrocyclization of Quinazoline-Based EGFR Inhibitors Leads to Exclusive Mutant Selectivity for EGFR L858R and Del19” (J Med Chem, 2022).

The target of the assay is T1, Cyclin-G-associated kinase (Homo sapiens) (UniProt O14976).
T1 sequence (whole entry): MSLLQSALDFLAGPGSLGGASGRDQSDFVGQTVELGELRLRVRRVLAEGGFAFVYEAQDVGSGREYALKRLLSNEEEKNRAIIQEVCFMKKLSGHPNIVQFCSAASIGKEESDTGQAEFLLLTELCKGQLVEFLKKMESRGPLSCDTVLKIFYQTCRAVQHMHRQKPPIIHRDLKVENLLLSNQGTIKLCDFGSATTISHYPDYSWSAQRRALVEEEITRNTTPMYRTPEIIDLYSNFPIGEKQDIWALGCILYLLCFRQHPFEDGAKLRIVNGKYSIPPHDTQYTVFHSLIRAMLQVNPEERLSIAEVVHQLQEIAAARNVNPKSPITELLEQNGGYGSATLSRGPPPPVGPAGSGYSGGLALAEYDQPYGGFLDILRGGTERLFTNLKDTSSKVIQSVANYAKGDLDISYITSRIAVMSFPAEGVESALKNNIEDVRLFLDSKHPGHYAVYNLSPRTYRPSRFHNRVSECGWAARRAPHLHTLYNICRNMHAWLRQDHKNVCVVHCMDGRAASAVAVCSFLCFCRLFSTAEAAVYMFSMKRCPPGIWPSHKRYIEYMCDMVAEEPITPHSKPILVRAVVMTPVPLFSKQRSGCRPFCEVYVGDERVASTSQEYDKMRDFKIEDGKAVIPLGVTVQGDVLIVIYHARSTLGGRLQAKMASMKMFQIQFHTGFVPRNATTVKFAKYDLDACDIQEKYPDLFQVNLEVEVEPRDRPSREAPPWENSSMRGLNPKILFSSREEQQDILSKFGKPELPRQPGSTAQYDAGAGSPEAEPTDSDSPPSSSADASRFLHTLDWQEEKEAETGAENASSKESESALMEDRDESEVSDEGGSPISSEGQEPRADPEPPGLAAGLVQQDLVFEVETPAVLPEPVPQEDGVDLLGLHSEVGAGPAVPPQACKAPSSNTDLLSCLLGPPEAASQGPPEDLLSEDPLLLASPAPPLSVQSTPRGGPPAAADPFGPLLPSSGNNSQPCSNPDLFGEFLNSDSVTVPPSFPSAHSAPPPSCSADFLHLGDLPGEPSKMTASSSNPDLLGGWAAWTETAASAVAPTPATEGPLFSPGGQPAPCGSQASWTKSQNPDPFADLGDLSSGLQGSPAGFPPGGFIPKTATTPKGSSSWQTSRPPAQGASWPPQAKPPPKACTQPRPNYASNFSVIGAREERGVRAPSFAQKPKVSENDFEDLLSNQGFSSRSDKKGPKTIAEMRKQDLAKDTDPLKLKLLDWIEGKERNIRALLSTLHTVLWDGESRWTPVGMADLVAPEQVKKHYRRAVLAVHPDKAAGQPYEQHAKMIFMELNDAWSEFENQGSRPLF
The assay is described as follows: Binding affinity to recombinant GAK (unknown origin) assessed as change in melting temperature 10 uM by differential scanning fluorimetry.

The term ΔTm denotes the change in melting temperature against a reference sample.

A value given as a limit tells only on which side of the number the result lay.

Regarding `COc1cc2ncnc(Nc3cc(Cl)c(F)cc3O)c2cc1O`, the ΔTm is above 3 °C.
